Test results reported in ChEMBL document CHEMBL1201862, “PubChem BioAssay data set” (2004).
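Where inhibition never reached the appropriate level, the endpoint shown equals the highest concentration tested. Otherwise, values were interpolated linearly from a five-concentration, 48-hour dose response in 96-well plates. At the GI50, growth is halved.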 The source made the active and inactive calls. Rule as the data show it: active = GI50 up to about 1.1 µM and inactive = higher.

What was measured:
Test in all cases: NCI-60 cell line screen, 48 h
786-0 = tested on: 786-0
A498 = tested on: A498
A549 = tested on: A549
ACHN = tested on: ACHN
BT-549 = tested on: BT-549
CAKI-1 = tested on: CAKI-1
COLO 205 = tested on: COLO 205
DU-145 = tested on: DU-145
EKVX = tested on: EKVX
HCC 2998 = tested on: HCC 2998
HCT-116 = tested on: HCT-116
HCT-15 = tested on: HCT-15
HOP-92 = tested on: HOP-92
HT-29 = tested on: HT-29
IGROV-1 = tested on: IGROV-1
K562 = tested on: K562
KM12 = tested on: KM12
LOX IMVI = tested on: LOX IMVI
M14 = tested on: M14
MCF7 = tested on: MCF7
MDA-MB-231 = tested on: MDA-MB-231
MDA-MB-435 = tested on: MDA-MB-435
MDA-N = tested on: MDA-N
NCI-H226 = tested on: NCI-H226
NCI-H23 = tested on: NCI-H23
NCI-H460 = tested on: NCI-H460
NCI/ADR-RES = tested on: NCI/ADR-RES
OVCAR-3 = tested on: OVCAR-3
OVCAR-4 = tested on: OVCAR-4
OVCAR-5 = tested on: OVCAR-5
OVCAR-8 = tested on: OVCAR-8
PC-3 = tested on: PC-3
RPMI-8226 = tested on: RPMI-8226
SF-295 = tested on: SF-295
SF-539 = tested on: SF-539
SK-MEL-28 = tested on: SK-MEL-28
SK-MEL-2 = tested on: SK-MEL-2
SK-MEL-5 = tested on: SK-MEL-5
SK-OV-3 = tested on: SK-OV-3
SN12C = tested on: SN12C
SNB-19 = tested on: SNB-19
SW-620 = tested on: SW-620
T47D = tested on: T47D
TK-10 = tested on: TK-10
U-251 = tested on: U-251
UACC-257 = tested on: UACC-257
UACC-62 = tested on: UACC-62
UO-31 = tested on: UO-31
CCRF-CEM = tested on: CCRF-CEM
HL-60 = tested on: HL-60
HOP-62 = tested on: HOP-62
MOLT-4 = tested on: MOLT-4
NCI-H522 = tested on: NCI-H522
SF-268 = tested on: SF-268
SR = tested on: SR
Malme-3M = tested on: Malme-3M
RXF 393 = tested on: RXF 393
SNB-75 = tested on: SNB-75

## Cc1ccc(Cc2nn(C)c(=O)n2N)cc1
786-0
  GI50: > 100 µM (inactive)
A498
  GI50: > 100 µM (inactive)
A549
  GI50: > 100 µM (inactive)
ACHN
  GI50: > 100 µM (inactive)
BT-549
  GI50: > 100 µM (inactive)
CAKI-1
  GI50: > 100 µM (inactive)
COLO 205
  GI50: > 100 µM (inactive)
DU-145
  GI50: > 100 µM (inactive)
EKVX
  GI50: > 100 µM (inactive)
HCC 2998
  GI50: > 100 µM (inactive)
HCT-116
  GI50: > 100 µM (inactive)
HCT-15
  GI50: > 100 µM
HOP-92
  GI50: > 100 µM (inactive)
HT-29
  GI50: > 100 µM (inactive)
IGROV-1
  GI50: > 100 µM (inactive)
K562
  GI50: > 100 µM (inactive)
KM12
  GI50: > 100 µM (inactive)
LOX IMVI
  GI50: > 100 µM (inactive)
M14
  GI50: > 100 µM (inactive)
MCF7
  GI50: > 100 µM (inactive)
MDA-MB-231
  GI50: > 100 µM (inactive)
MDA-MB-435
  GI50: > 100 µM (inactive)
MDA-N
  GI50: > 100 µM (inactive)
NCI-H226
  GI50: > 100 µM (inactive)
NCI-H23
  GI50: > 100 µM (inactive)
NCI-H460
  GI50: > 100 µM (inactive)
NCI/ADR-RES
  GI50: > 100 µM (inactive)
OVCAR-3
  GI50: > 100 µM (inactive)
OVCAR-4
  GI50: > 100 µM (inactive)
OVCAR-5
  GI50: > 100 µM (inactive)
OVCAR-8
  GI50: > 100 µM (inactive)
PC-3
  GI50: > 100 µM (inactive)
RPMI-8226
  GI50: > 100 µM (inactive)
SF-295
  GI50: > 100 µM (inactive)
SF-539
  GI50: > 100 µM (inactive)
SK-MEL-28
  GI50: > 100 µM (inactive)
SK-MEL-2
  GI50: > 100 µM (inactive)
SK-MEL-5
  GI50: > 100 µM (inactive)
SK-OV-3
  GI50: > 100 µM (inactive)
SN12C
  GI50: > 100 µM (inactive)
SNB-19
  GI50: > 100 µM (inactive)
SW-620
  GI50: > 100 µM (inactive)
T47D
  GI50: > 100 µM (inactive)
TK-10
  GI50: > 100 µM (inactive)
U-251
  GI50: > 100 µM (inactive)
UACC-257
  GI50: > 100 µM (inactive)
UACC-62
  GI50: > 100 µM (inactive)
UO-31
  GI50: > 100 µM (inactive)

## CCC[C@@H](O)C[C@@H]1CCC[C@H](C[C@@H](O)CC)N1C
786-0
  GI50: > 100 µM (inactive)
A498
  GI50: > 100 µM (inactive)
A549
  GI50: > 100 µM (inactive)
ACHN
  GI50: > 100 µM (inactive)
BT-549
  GI50: 76.4 µM (inactive)
CAKI-1
  GI50: > 100 µM (inactive)
CCRF-CEM
  GI50: > 100 µM (inactive)
COLO 205
  GI50: > 100 µM (inactive)
DU-145
  GI50: > 100 µM (inactive)
EKVX
  GI50: 29.7 µM (inactive)
HCC 2998
  GI50: > 100 µM (inactive)
HCT-116
  GI50: > 100 µM (inactive)
HCT-15
  GI50: > 100 µM
HL-60
  GI50: > 100 µM (inactive)
HOP-62
  GI50: > 100 µM (inactive)
HOP-92
  GI50: < 0.01 µM (active)
HT-29
  GI50: > 100 µM (inactive)
IGROV-1
  GI50: > 100 µM (inactive)
K562
  GI50: > 100 µM (inactive)
KM12
  GI50: > 100 µM (inactive)
LOX IMVI
  GI50: 88.1 µM (inactive)
M14
  GI50: > 100 µM (inactive)
MCF7
  GI50: > 100 µM (inactive)
MDA-MB-231
  GI50: > 100 µM (inactive)
MDA-MB-435
  GI50: > 100 µM (inactive)
MDA-N
  GI50: > 100 µM (inactive)
MOLT-4
  GI50: > 100 µM (inactive)
NCI-H226
  GI50: > 100 µM (inactive)
NCI-H23
  GI50: > 100 µM (inactive)
NCI-H522
  GI50: 11.7 µM (inactive)
NCI/ADR-RES
  GI50: > 100 µM (inactive)
OVCAR-3
  GI50: > 100 µM (inactive)
OVCAR-4
  GI50: > 100 µM (inactive)
OVCAR-5
  GI50: > 100 µM (inactive)
OVCAR-8
  GI50: > 100 µM (inactive)
PC-3
  GI50: > 100 µM (inactive)
RPMI-8226
  GI50: > 100 µM (inactive)
SF-268
  GI50: 17.9 µM (inactive)
SF-295
  GI50: > 100 µM (inactive)
SF-539
  GI50: > 100 µM (inactive)
SK-MEL-28
  GI50: > 100 µM (inactive)
SK-MEL-2
  GI50: > 100 µM (inactive)
SK-MEL-5
  GI50: > 100 µM (inactive)
SK-OV-3
  GI50: > 100 µM (inactive)
SN12C
  GI50: > 100 µM (inactive)
SNB-19
  GI50: > 100 µM (inactive)
SR
  GI50: > 100 µM (inactive)
SW-620
  GI50: > 100 µM (inactive)
T47D
  GI50: > 100 µM (inactive)
TK-10
  GI50: > 100 µM (inactive)
U-251
  GI50: > 100 µM (inactive)
UACC-257
  GI50: > 100 µM (inactive)
UACC-62
  GI50: > 100 µM (inactive)
UO-31
  GI50: > 100 µM (inactive)

## CCN(CCCN(CC)C(=O)Nc1ccccc1)C(=O)Nc1ccccc1
786-0
  GI50: > 100 µM (inactive)
A549
  GI50: > 100 µM (inactive)
ACHN
  GI50: > 100 µM (inactive)
BT-549
  GI50: > 100 µM (inactive)
CAKI-1
  GI50: > 100 µM (inactive)
CCRF-CEM
  GI50: > 100 µM (inactive)
COLO 205
  GI50: > 100 µM (inactive)
DU-145
  GI50: > 100 µM (inactive)
EKVX
  GI50: > 100 µM (inactive)
HCC 2998
  GI50: > 100 µM (inactive)
HCT-116
  GI50: > 100 µM (inactive)
HCT-15
  GI50: > 100 µM
HL-60
  GI50: > 100 µM (inactive)
HOP-62
  GI50: > 100 µM (inactive)
HOP-92
  GI50: > 100 µM (inactive)
HT-29
  GI50: > 100 µM (inactive)
IGROV-1
  GI50: > 100 µM (inactive)
K562
  GI50: > 100 µM (inactive)
KM12
  GI50: > 100 µM (inactive)
LOX IMVI
  GI50: > 100 µM (inactive)
M14
  GI50: > 100 µM (inactive)
MCF7
  GI50: > 100 µM (inactive)
MDA-MB-231
  GI50: > 100 µM (inactive)
MDA-MB-435
  GI50: > 100 µM (inactive)
MDA-N
  GI50: > 100 µM (inactive)
MOLT-4
  GI50: > 100 µM (inactive)
Malme-3M
  GI50: 66.1 µM (inactive)
NCI-H226
  GI50: > 100 µM (inactive)
NCI-H23
  GI50: > 100 µM (inactive)
NCI-H460
  GI50: > 100 µM (inactive)
NCI-H522
  GI50: > 100 µM (inactive)
NCI/ADR-RES
  GI50: > 100 µM (inactive)
OVCAR-3
  GI50: > 100 µM (inactive)
OVCAR-4
  GI50: > 100 µM (inactive)
OVCAR-5
  GI50: > 100 µM (inactive)
OVCAR-8
  GI50: > 100 µM (inactive)
PC-3
  GI50: > 100 µM (inactive)
RPMI-8226
  GI50: > 100 µM (inactive)
RXF 393
  GI50: > 100 µM (inactive)
SF-295
  GI50: > 100 µM (inactive)
SF-539
  GI50: > 100 µM (inactive)
SK-MEL-28
  GI50: > 100 µM (inactive)
SK-MEL-2
  GI50: > 100 µM (inactive)
SK-MEL-5
  GI50: > 100 µM (inactive)
SK-OV-3
  GI50: > 100 µM (inactive)
SN12C
  GI50: > 100 µM (inactive)
SNB-19
  GI50: > 100 µM (inactive)
SNB-75
  GI50: > 100 µM (inactive)
SR
  GI50: > 100 µM (inactive)
SW-620
  GI50: > 100 µM (inactive)
T47D
  GI50: > 100 µM (inactive)
TK-10
  GI50: > 100 µM (inactive)
U-251
  GI50: > 100 µM (inactive)
UACC-257
  GI50: > 100 µM (inactive)
UACC-62
  GI50: > 100 µM (inactive)
UO-31
  GI50: > 100 µM (inactive)
